Laboratory results reported in US20150289512A1, “METHOD FOR PROMOTING PLANT GROWTH” (SUMITOMO CHEMICAL COMPANY, LIMITED, priority 2012, published 2015).

Key:
Type in all cases: in vivo
[1] = test system: Rice (variety: Nipponbare); assay: Test Example 2: promotion of root growth by hydroponics of rice, 1 ppm; conditions: hydroponic solution containing the test compound at 1 ppm, average of 4 or 5 individuals
Description: (§1) Test for Evaluating Promotion of Root Growth by Hydroponics of Rice
(§2) Rice (variety: Nipponbare)
A DMSO solution, which contained one of the compounds 1, 3, 11, 12, 14, 15, 17, 21, 28, 30, 33, 34, 35, 36, 37, 38, 40, 41, 43, 44, 45, 46, 47, 49, 50, 51, 52, 53, 54, 55, 56, 61, 62, 63, 65, 67, 68, 69, 70, 73, 74, 75, 76, 77, 80, 82, 83, 85 and 86 of the present invention at a concentration of 10,000 ppm, was added to Hoagland hydroponic solution (Hoagland and Arnon, California Agricultural Experiment Station 1950 Circular 347 pp. 34) of ¼-fold concentration at a volume ratio of 1/10,000. In this manner, hydroponic solutions containing one of the compounds 1, 3, 11, 12, 14, 15, 17, 21, 28, 30, 33, 34, 35, 36, 37, 38, 40, 41, 43, 44, 45, 46, 47, 49, 50, 51, 52, 53, 54, 55, 56, 61, 62, 63, 65, 67, 68, 69, 70, 73, 74, 75, 76, 77, 80, 82, 83, 85 and 86 of the present invention at 1 ppm were prepared respectively. As an untreated control plot, a hydroponic solution obtained by adding DMSO to Hoagland hydroponic solution of ¼-fold concentration at a volume ratio of 1/10,000 was used. Rice seeds were soaked in a 1% aqueous sodium hypochlorite solution for 10 minutes, then soaked in a 70% ethanol solution for surface sterilization, and then washed with distilled water. The sterilized seeds were soaked in a hydroponic solution containing the test compound described above at 1 ppm and incubated in a dark place for 3 days at 28° C. to perform treatment for hastening germination.
(§3) Thereafter, 30 ml of hydroponic solution containing the test compound at 1 ppm was dispensed in a plastic tube (diameter of 20 mm×height of 113 mm) of which the side was covered with cardboard to block light. A float prepared using a styrene board and vinyl mesh was floated, and the rice seeds that had undergone the treatment for hastening germination were placed on the float on the surface of the hydroponic solution. The seeds were cultivated for 3 days at 26° C., an illuminance of 4,000 lux of the top surface of the tube, a humidity of 50%, and a day length of 16 hours.
The nursery plants of rice obtained after cultivation were measured in terms of the length of seminal root by using WinRHIZO system (manufactured by Regent Instruments Inc). For each test plot, an average of the measured values of the seminal root of 4 or 5 individuals was determined.

[2] = test system: Corn seeds (variety: Pioneer 120 31P41); assay: Test Example 14: growth promotion under low-temperature stress by soil drench treatment of corn; conditions: soil drench 20 ml, low-temperature stress 5 days at 2.5° C., health score 0-5, average of 4 individuals; for change in vivo at 3 ppm: concentration tested 3 ppm
Description: Test for Evaluating Growth Promotion Under Low-Temperature Stress by Soil Drench Treatment of Corn
Corn seeds (variety: Pioneer 120 31P41) were seeded in a culture soil (Aisai) in a plastic pot (φ55 mm×height of 58 mm), and cultivated for 7 days at 20-25° C., an illuminance of about 5,000 lux, and a day length of 16 hours.
A DMSO solution, which contained one of the compounds 1 to 9, 16, 17, 20, 23, 24, 28 to 32, 34, 45, 48, 50, 82 and 85 of the present invention at a concentration of 1,000-fold concentration of each test concentration, was prepared, and then diluted with distilled water to obtain each test solution. After that, 20 ml of the obtained test solution was used to perform soil drench treatment on the foot of the test plants. The test plants were cultivated for 2 days under the conditions of a temperature of 27° C., a humidity of 40-80%, an illuminance of about 5,000 lux, and a day length of 16 hours. This was used as a test plot treated with the compound. A plot having undergone the soil drench treatment with 20 ml of a 0.1% DMSO aqueous solution instead of the above DMSO solution containing the compound was used as an untreated control plot.
The plants having undergone the soil drench treatment were cultivated for 5 days under the conditions of a temperature of 2.5° C., a humidity of 40-80%, an illuminance of about 5,000 lux, and a day length of 16 hours, thereby exposing to low-temperature stress. After the exposure to the low-temperature stress, the plants were cultivated for 4 days under the conditions of a temperature of 27° C., a humidity of 40-80%, an illuminance of about 5,000 lux, and a day length of 16 hours.
After the cultivation, the health of each plant was scored according to the following evaluation index.
5: 4 or more leaves in which ⅔ or more of the area was healthy
4: 3 leaves in which ⅔ or more of the area was healthy
3: 2 leaves in which ⅔ or more of the area was healthy
2: 1 leaf in which ⅔ or more of the area was healthy
1: No leaf in which ⅔ or more of the area was healthy
An average of the scores of the health of 4 individuals was determined.

[3] = test system: Rice (variety: Nipponbare); assay: Test Example 3: promotion of root growth by hydroponics of rice, 0.1 ppm; conditions: hydroponic solution containing the test compound at 0.1 ppm, average of 4 or 5 individuals
Description: as §1, §2
A DMSO solution, which contained one of the compounds 2, 6, 7, 16, 20, 33, 34, 36, 37, 38, 40, 41, 43, 44, 45, 46, 47, 48, 50, 51, 52, 53, 54, 55, 56, 61, 64, 67, 68, 71, 72, 73, 74, 75, 76, 79, 80, 81 and 83 of the present invention at a concentration of 1,000 ppm, was added to Hoagland hydroponic solution (Hoagland and Arnon, California Agricultural Experiment Station 1950 Circular 347 pp. 34) of ¼-fold concentration at a volume ratio of 1/10,000. In this manner, hydroponic solutions containing one of the compounds 2, 6, 7, 16, 20, 33, 34, 36, 37, 38, 40, 41, 43, 44, 45, 46, 47, 48, 50, 51, 52, 53, 54, 55, 56, 61, 64, 67, 68, 71, 72, 73, 74, 75, 76, 79, 80, 81 and 83 of the present invention at 0.1 ppm were prepared respectively. As an untreated control plot, a hydroponic solution obtained by adding DMSO to Hoagland hydroponic solution of ¼-fold concentration at a volume ratio of 1/10,000 was used.
Rice seeds were soaked in a 1% aqueous sodium hypochlorite solution for 10 minutes, then soaked in a 70% ethanol solution for surface sterilization, and then washed with distilled water. The sterilized seeds were soaked in a hydroponic solution containing the test compound described above at 0.1 ppm and incubated in a dark place for 3 days at 28° C. to perform treatment for hastening germination.
as §3, with “at 0.1” for “at 1”
The nursery plants of rice obtained after culturing were measured in terms of the length of seminal root by using WinRHIZO system (manufactured by Regent Instruments Inc). For each test plot, an average of the measured values of the seminal root of 4 or 5 individuals was determined.

[4] = test system: Rice (variety: Nipponbare); assay: Test Example 1: promotion of root growth by hydroponics of rice, 10 ppm; conditions: Oryza sativa, hydroponic solution containing the test compound at 10 ppm, average of 4 or 5 individuals, read-out: Relative value of length of seminal root (%-untreated control plot)
Procedure, shortened: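 Surface-sterilised seeds germinated 3 days in the dark at 28° C in hydroponic solution with compound at 10 ppm, then grown 3 days hydroponically with compound at 10 ppm (26° C, 4,000 lux, 16 h day, 50% humidity). Seminal root length measured by image analysis, averaged over 4 or 5 plants per plot.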

Nicotiana benthamiana = assay: Test Example 4: growth promotion under low-temperature stress by hydroponics of Nicotiana benthamiana, 10 ppm; conditions: 10 ppm in medium, low-temperature stress 7 days at 1.5±1.0° C., green leaf area 3 days later, equation (1)
Description: Test for Evaluating Growth Promotion Under Low-Temperature Stress by Hydroponics of Nicotiana benthamiana
A DMSO solution, which contained one of the compounds 1, 8, 9, 13, 18, 19, 22, 23, 29, 32, 33, 34, 39, 40, 41, 43, 44, 51, 53, 54, 55, 56, 58, 60, 62, 63, 64, 65, 67, 69, 71, 73, 74, 75, 77, 79, 82, 83 and 86 of the present invention at a concentration of 10,000 ppm, was prepared. The DMSO solution of the compound of the present invention was added at a volume ratio of 1/1,000 to the Murashige•Scoog medium of a ½-fold concentration (a medium containing 2.3 g of mixed salts for the Murashige•Scoog medium (manufactured by Wako Pure Chemical Industries, Ltd.), 200 mg of Myo-inositol (manufactured by Sigma-Aldrich Co. LLC.), 2 mg of nicotinic acid (manufactured by Wako Pure Chemical Industries, Ltd.), 2 mg of pyridoxine hydrochloride (manufactured by Wako Pure Chemical Industries, Ltd.), 20 mg of thiamine hydrochloride (manufactured by Wako Pure Chemical Industries, Ltd.), 20 g of sucrose (manufactured by Wako Pure Chemical Industries, Ltd.), and 1 g of MES (manufactured by DOJINDO LABORATORIES) per 1 L of water and having pH adjusted to 5.8), thereby preparing a medium containing the compound of the present invention at a concentration of 10 ppm.
Seeds of Nicotiana benthamiana were seeded in the 5 μL of the medium and cultured overnight at 22° C. Thereafter, 45 μL of the medium containing the compound of the present invention at a concentration of 10 ppm was added thereto, and the seeds are cultivated for 7 days at 22° C., an illuminance of 4,000 lux, and a day length of 16 hours, and the nursery plants raised from the Nicotiana benthamiana were treated with the compound. Moreover, instead of the above medium, a test plot, which was obtained by performing the same treatment by using a medium prepared by adding DMSO to the Murashige•Scoog medium of ½-fold concentration at a volume ratio of 1/1,000, was used as a control plot not treated with the compound.
The nursery plants of the Nicotiana benthamiana treated with the compound were subjected to low-temperature treatment by being cultivated for 7 days at 1.5±1.0° C., an illuminance of 2,000 lux, and a day length of 16 hours.
The nursery plants of the Nicotiana benthamiana having undergone the low-temperature stress treatment were cultivated for 3 days at 22° C., an illuminance of 4,000 lux, and a day length of 16 hours. Thereafter, the area of green leaf was quantified by Scanalyzer HTS (manufactured by LemnaTec GmbH). Moreover, the value of the control plot not treated with the compound that had not yet been subjected to the low-temperature stress treatment was measured in the same manner. A value of a relative leaf area was calculated based on the following equation (1), and if the value of a relative leaf area was 5 or greater, the compound was evaluated to have a mitigating effect. As a result of the evaluation, it was confirmed that when the plant was treated with one of the compounds 1, 8, 9, 13, 18, 19, 22, 23, 29, 32, 33, 34, 39, 40, 41, 43, 44, 51, 53, 54, 55, 56, 58, 60, 62, 63, 64, 65, 67, 69, 71, 73, 74, 75, 77, 79, 82, 83 and 86 of the present invention at 10 ppm, the value of a relative leaf area was 5 or greater, compared to the area of green leaf of the control plot not treated with compound. Accordingly, it was confirmed that the treatment using the compound of the present invention brings about a growth promotion effect.
Relative leaf area=100*(a green area of a plot treated with the compound of the present invention−a green area of a control plot not treated with the compound of the present invention)/(a green area of a control plot not treated with the compound of the present invention that has not yet been subjected to low-temperature stress treatment−a green area of a control plot not treated with the compound of the present invention) Equation (1): […]

[5] = Zea mays, 120 h, read-out: Relative value of score (%- untreated control plot)

| Compound | Relative value of length of seminal root (%-untreated control plot) [1] | Relative value of score (%- untreated control plot) ([2]; concentration tested 10 ppm) | change in vivo at 10 ppm [4] | relative leaf area at 10 ppm (Nicotiana benthamiana) | change in vivo at 3 ppm [2, 5] | other results |
| --- | --- | --- | --- | --- | --- | --- |
| O=C(O)c1nc2cccnc2[nH]1 [Compound 28] | >5% | >5% |  |  |  |  |
| COC(=O)c1cc2c(C(F)(F)F)cccc2[nH]1 [Compound 6] |  | >5% |  |  |  | Relative value of length of seminal root (%-untreated control plot) [3]: >5% |
| COC(=O)c1nc2ccccc2s1 [Compound 30] | >5% | >5% |  |  |  |  |
| COC(=O)c1nc2cc(C(F)(F)F)ccc2s1 [Compound 29, methyl 5-trifluoromethylbenzothiazole-2-carboxylate] |  |  | > 5% | ≥ 5% | > 5% |  |
| COC(=O)c1cc2cc(C(F)(F)F)ccc2[nH]1 [Compound 8, methyl 5-trifluoromethylindole-2-carboxylate] |  |  | > 5% | ≥ 5% | > 5% |  |
| COC(=O)c1cc2ccc(C(F)(F)F)cc2o1 [Compound 48] |  |  |  |  |  | change in vivo at 0.1 ppm ([3]; Oryza sativa, read-out: Relative value of length of seminal root (%-untreated control plot)): > 5%; change in vivo at 10 ppm ([2]; Zea mays, 120 h, concentration tested 10 ppm, read-out: Relative value of score (%- untreated control plot)): > 5% |
